Results taken from patent US20210236391A1, “Dental Product, use of a Dental Product and methods of use of a dental product” (DR HEFF'S PRODUCTS LIMITED, priority 2015, published 2021).
“Also recorded” adds a separate entry of the source.

How the values were obtained:
[1] = Apparent mineral density by micro-computed tomography after in vitro pH-proteolytic cycling; design: species or system bovine; conditions: for increase percentage of the apparent mineral density (mg HA/ccm): mean values after pH-proteolytic cycling and treatments, micro-CT; for effect on mineral density of the caries lesion (in words): after pH-proteolytic cycling and treatments, compared to AS control
Protocol: An objective of the experimental study was to investigate the effects of mints containing bioactive agents, specifically the xylitol, ACP and eGCG, in the re-mineralization of root dentin surfaces. […] The caries lesions depths and porosity as well as mineral density (hydroxyapatite content) were estimated using fluorescence microscopy and micro-computed tomography. Extracted sound bovine incisors were freshly collected from a slaughterhouse, cleaned and stored at 4° C. in 0.1% thymol for no longer than 2 weeks. Two root fragments (5×4×1 mm) from the cervical portion (mesial and distal) of the root were obtained from each tooth using diamond disk mounted in a cutting machine (Isomet 1000, Buehler, Lake Bluff, IL, USA). The dentin surfaces were polished using #600 and #800 abrasive paper (Carbimet, Buehler) under constant water irrigation. The entire surface of the fragments was sealed with acid-resistant nail polish, except for a 4×3 mm window on the polished dentin surface. The root fragments were placed in a demineralization solution (2.2 mM CaCl2.2H2O, 2.2 mM KH2PO4, 50 mM acetate, pH 4.6) for 96 h at 37° C. to create initial caries lesions of approximately 120 μm-deep (1). Following lesion development, the fragments were rinsed thoroughly with deionized water, and half of the specimens' windows were covered with an acid-resistant nail polish to maintain the baseline lesion. […] The concentrations were optimized to simulate the in vivo conditions in which the normal salivary flow is 0.5 mL/min (2). Thus, one third of the mints (g) were dissolved in 0.5 ml of artificial saliva and the ingredients concentrations were kept at same ratio as in the original mint formulation. […] All solutions were prepared daily prior to use. In addition to pH cycling, the overnight re-mineralization solutions had bacterial collagenase from Chlostridium Histolycum (100 μg/ml) to simulate enzymatic challenge. Each specimen was sectioned perpendicularly to the varnished area so that each section included the baseline and post-treatment lesions. Half of each sample was used for fluorescence microscopy and the other half was used for micro-computed tomography. Specimens (n=6 per group) were fixed in 10% neutral buffered formalin for 24 h. Specimens were held securely in a specimen holder, which were soaked with phosphate-buffered saline (PBS). […] The manufacturer's software was used to filter noise and segment the data at a threshold of 220. Tissue mineral density (based on a standard calibration phantom provided by the manufacturer) was determined (mg/cc of hydroxyapatite). […] The assumption of equality of variances and normal distribution of errors were verified using Levene's test. […]

[2] = Rhodamine B fluorescence intensity (lesion porosity) after in vitro pH-proteolytic cycling; design: species or system bovine; conditions: for decrease percentage of the mean Rhodamine fluorescence (F) exhibited by caries lesions: after treatments (suspended in artificial saliva, 5 times per day for 3 minutes) and pH-proteolytic cycling for 8 days
Protocol: An objective of the experimental study was to investigate the effects of mints containing bioactive agents, specifically the xylitol, ACP and eGCG, in the re-mineralization of root dentin surfaces. […] The caries lesions depths and porosity as well as mineral density (hydroxyapatite content) were estimated using fluorescence microscopy and micro-computed tomography. Extracted sound bovine incisors were freshly collected from a slaughterhouse, cleaned and stored at 4° C. in 0.1% thymol for no longer than 2 weeks. Two root fragments (5×4×1 mm) from the cervical portion (mesial and distal) of the root were obtained from each tooth using diamond disk mounted in a cutting machine (Isomet 1000, Buehler, Lake Bluff, IL, USA). The dentin surfaces were polished using #600 and #800 abrasive paper (Carbimet, Buehler) under constant water irrigation. The entire surface of the fragments was sealed with acid-resistant nail polish, except for a 4×3 mm window on the polished dentin surface. The root fragments were placed in a demineralization solution (2.2 mM CaCl2.2H2O, 2.2 mM KH2PO4, 50 mM acetate, pH 4.6) for 96 h at 37° C. to create initial caries lesions of approximately 120 μm-deep (1). Following lesion development, the fragments were rinsed thoroughly with deionized water, and half of the specimens' windows were covered with an acid-resistant nail polish to maintain the baseline lesion. […] The concentrations were optimized to simulate the in vivo conditions in which the normal salivary flow is 0.5 mL/min (2). Thus, one third of the mints (g) were dissolved in 0.5 ml of artificial saliva and the ingredients concentrations were kept at same ratio as in the original mint formulation. […] All solutions were prepared daily prior to use. In addition to pH cycling, the overnight re-mineralization solutions had bacterial collagenase from Chlostridium Histolycum (100 μg/ml) to simulate enzymatic challenge. Each specimen was sectioned perpendicularly to the varnished area so that each section included the baseline and post-treatment lesions. Half of each sample was used for fluorescence microscopy and the other half was used for micro-computed tomography. […] The assumption of equality of variances and normal distribution of errors were verified using Levene's test. Analysis of variance (ANOVA) followed by Scheffe or Game-Howell tests were performed at α=0.05 using SPSS 20 software.

[3] = Caries lesion depth by fluorescence microscopy after in vitro pH-proteolytic cycling; design: species or system bovine; conditions: after treatments and pH-proteolytic cycling for 8 days
Protocol: An objective of the experimental study was to investigate the effects of mints containing bioactive agents, specifically the xylitol, ACP and eGCG, in the re-mineralization of root dentin surfaces. […] The caries lesions depths and porosity as well as mineral density (hydroxyapatite content) were estimated using fluorescence microscopy and micro-computed tomography. Extracted sound bovine incisors were freshly collected from a slaughterhouse, cleaned and stored at 4° C. in 0.1% thymol for no longer than 2 weeks. […] Half of each sample was used for fluorescence microscopy and the other half was used for micro-computed tomography. […] Samples were analyzed with a Fluorescence Microscope (DM16000 B, Leica), using TEX and DIC (differential interference contrast) channels. Fluorescence intensity line profiles obtained in TEX channel images of the pre and post-treatment lesions were analyzed in Image J Software (NIH), thereby providing mean intensity values (per pixel) for red emission channel of each image. The fluorescence intensity is directly related to the porosity of the de-mineralized dentin, where increased porosity is directly related to increased fluorescence intensity. Fluorescence data was presented as percentage difference from post-treatment and pre-treatment lesions of each specimen. […]

[4] = In vitro pH-proteolytic cycling model, overall re-mineralization and tissue observations; design: species or system bovine
Text: (§1) An objective of the experimental study was to investigate the effects of mints containing bioactive agents, specifically the xylitol, ACP and eGCG, in the re-mineralization of root dentin surfaces. […] The caries lesions depths and porosity as well as mineral density (hydroxyapatite content) were estimated using fluorescence microscopy and micro-computed tomography.
as §1, with “The” for “An”, “this” for “the experimental”, “agents (e.g.” for “agents, specifically the”, “eGCG)” for “eGCG,”, “micro computed” for “micro-computed”
Extracted sound bovine incisors were freshly collected from a slaughterhouse, cleaned and stored at 4° C. in 0.1% thymol for no longer than 2 weeks. Two root fragments (5×4×1 mm) from the cervical portion (mesial and distal) of the root were obtained from each tooth using diamond disk mounted in a cutting machine (Isomet 1000, Buehler, Lake Bluff, IL, USA). The dentin surfaces were polished using #600 and #800 abrasive paper (Carbimet, Buehler) under constant water irrigation. The entire surface of the fragments was sealed with acid-resistant nail polish, except for a 4×3 mm window on the polished dentin surface. […]

[5] = five xylitol lozenges spaced across the day, caries-active adults; cited from earlier work

Row | Structure (SMILES) | increase percentage of the apparent mineral density (mg HA/ccm) [1] [%] | decrease percentage of the mean Rhodamine fluorescence (F) exhibited by caries lesions [2] [%] | effect on mineral density of the caries lesion (in words) [1] | lesion porosity / fluorescence decrease compared to AS (negative control), statistical significance ([2]; after treatments and pH-proteolytic cycling for 8 days) | caries lesion depth change from initial lesions (in words) [3] | dental tissue loss ([4]; after pH-proteolytic cycling and treatments, in artificial saliva) | caries re-mineralization (overall conclusion) ([4]; artificially induced root caries, in vitro pH-proteolytic cycling) | caries-preventive effect on root surfaces [5] | incidence of smooth-surface, occusal-surface or proximal-surface caries, xylitol vs control participants [5]
1 | [F-].[Na+] [NaF, sodium fluoride] | 165.53 | 5.60 |  |  |  |  |  |  | 
2 | O=C(O[C@@H]1Cc2c(O)cc(O)cc2O[C@@H]1c1cc(O)c(O)c(O)c1)c1cc(O)c(O)c(O)c1 [eGCG, epigallocatechin gallate] | 70.12 | 85.72 | promotes mineral density similar to fluoride; also recorded: increased mineral density | statistically significant differences; also recorded: significant decrease in lesion porosity | Significant (% caries lesion depth) decrease |  |  |  | 
3 | OC[C@@H](O)[C@H](O)[C@@H](O)CO [xylitol] |  | 34.92 | does not help to increase mineral density |  |  | dental tissue loss occurs; also recorded: Dental tissue loss was mainly observed | no significant effect | appears to have a caries-preventive effect on root surfaces | no statistically significant difference
